This note sets out measurements from US12338256B2, “Aza-tetracyclic oxazepine compounds and uses thereof” (Genentech, Inc., priority 2022, dated 2025).

pIC50: −log10 of the molar value.

Type in all cases: cell-based
Assay [1] concerns AsPC-1 (homozygous mutant KRAS G12D human pancreatic cell line). Nature of the assay: KRAS 3D-Cell Proliferation Assay, AsPC-1 (Example 503). The conditions noted are these: Homo sapiens, ASPC1, 168 h, AsPC-1 3D culture, 7 days, CellTiter-Glo 3D; read-out: Prolif AsPC-1 3D ATP IC50. The procedure:
Example 503: KRAS 3D-Cell Proliferation Assays. Cellular potencies of compounds are assessed by evaluating inhibition of proliferation in 3D cultures of homozygous mutant KRAS G12D human pancreatic cell lines (AsPC-1 and HPAC) as compared to a KRAS wild type human lung adenocarcinoma cell line (PC-9 and/or H1975). Cells are seeded into 384-well black round-bottom, ultra-low attachment assay plates in 50 uL cell growth medium (RPMI-1640 with 10% fetal bovine serum and 2 mM L-glutamine). After overnight incubation at 37° C. and 5% CO2, compounds solubilized in DMSO are added as dilution series to the wells in a total volume of 150 nL (0.3% DMSO final). The cells are incubated for 7 days at 37° C. and 5% CO2. Cell proliferation is quantitated by addition of 40 uL/well of CellTiter-GloÒ 3D (Promega), and the well contents are mixed 20× at high speed using liquid handling automation workstation (Bravo with 384-well head) and centrifuged at 1500 rpm for 2 minutes to eliminate bubbles. This reagent in combination with mechanical disruption releases the cellular ATP to promote activity in a luciferase-based enzyme/substrate chemiluminescent detection system. After a 30-minute incubation under ambient conditions with shaking and an additional 10 minutes without shaking, the luminescence is read on a plate reader (e.g., EnVision [PerkinElmer]). The results are normalized to percent inhibition based on the following control samples: DMSO (0% inhibition) and 1 μM staurosporine (100% inhibition). The normalized luminescence results are plotted against compound concentration, and the data are fit to a 4-parameter Hill equation to determine the IC50 values.
In general terms: Cellular ATP, detected with luciferase, serves as a proxy for viable cell number.

For assay [2], the system named is HPAC (homozygous mutant KRAS G12D human pancreatic cell line). Nature of the assay: KRAS 3D-Cell Proliferation Assay, HPAC (Example 503). As to conditions: Homo sapiens, HPAC, 168 h, HPAC 3D culture, 7 days, CellTiter-Glo 3D; read-out: Prolif HPAC 3D ATP IC50. An outline of the steps: (§1)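 IC50 values derive from 4-parameter Hill fits of normalized luminescence, where DMSO sets 0% and 1 μM staurosporine 100% inhibition. 3D cultures in RPMI-1640 with 10% fetal bovine serum were exposed to compound for 7 days before CellTiter-Glo 3D lysis.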

The subject of assay [3] is H1975 (KRAS wild type human lung adenocarcinoma cell line). Nature of the assay: KRAS 3D-Cell Proliferation Assay, H1975 (Example 503). As to conditions: Homo sapiens, NCI-H1975, 168 h, H1975 3D culture, 7 days, CellTiter-Glo 3D; read-out: Prolif H1975 3D ATP IC50. An outline of the steps:
as §1

The pIC50 is the IC50 on a negative log10 scale, so that one unit is a factor of ten. With `Cc1cc(N)cc(-c2nc3c4c(nc(OC[C@]56CCCN5CC(F)(F)C6)nc4c2F)N2C[C@H]4CC[C@H](N4)[C@H]2[C@H](C)O3)c1C(F)(F)F` [Compound 69, 3-((5S,5aS,6S,9R)-12-(((R)-2,2-Difluorotetrahydro-1H-pyrrolizin-7a(5H)-yl)methoxy)-1-fluoro-5-methyl-5a,6,7,8,9,10-hexahydro-5H-4-oxa-3,10a,11,13,14-pentaaza-6,9-methanonaphtho[1,8-ab]heptalen-2-yl)-5-methyl-4-(trifluoromethyl)aniline], the pIC50 is 7.67 in assay [1], 8.19 in assay [2] and 5.89 in assay [3].

In the case of `C[C@@H]1Oc2nc(-c3cc(N)c(F)cc3C(F)(F)F)c(F)c3nc(OC[C@@H]4CC[C@H]5COCCN54)nc(c23)N2C[C@H]3CC[C@H](N3)[C@@H]12` [Compound 70, 2-Fluoro-5-((5S,5aS,6S,9R)-1-fluoro-12-(((6S,8aS)-hexahydro-1H-pyrrolo[2,1-c][1,4]oxazin-6-yl)methoxy)-5-methyl-5a,6,7,8,9,10-hexahydro-5H-4-oxa-3,10a,11,13,14-pentaaza-6,9-methanonaphtho[1,8-ab]heptalen-2-yl)-4-(trifluoromethyl)aniline], the pIC50 in assay [1] was 7.36; in assay [2], 7.96; in assay [3], 5.77.

On to `Cc1c(F)c(N)cc(-c2nc3c4c(nc(OC[C@@]56CCCN5C[C@H](F)C6)nc4c2F)N2C[C@H]4CC[C@H](N4)[C@H]2[C@H](C)O3)c1CC(F)F` [Compound 75, 4-(2,2-Difluoroethyl)-2-fluoro-5-((5S,5aS,6S,9R)-1-fluoro-12-(((2R,7aS)-2-fluorotetrahydro-1H-pyrrolizin-7a(5H)-yl)methoxy)-5-methyl-5a,6,7,8,9,10-hexahydro-5H-4-oxa-3,10a,11,13,14-pentaaza-6,9-methanonaphtho[1,8-ab]heptalen-2-yl)-3-methylaniline], for which the pIC50 in assay [1] is 8.28; in assay [2] it was 8.56; in assay [3], 6.10.

Consider `C[C@@H]1Oc2nc(-c3cc(N)cc(F)c3C(F)(F)F)c(F)c3nc(OC[C@@H]4CC[C@H]5COCCN54)nc(c23)N2C[C@H]3CC[C@H](N3)[C@@H]12` [Compound 77, 3-Fluoro-5-((5S,5aS,6S,9R)-1-fluoro-12-(((6S,8aS)-hexahydro-1H-pyrrolo[2,1-c][1,4]oxazin-6-yl)methoxy)-5-methyl-5a,6,7,8,9,10-hexahydro-5H-4-oxa-3,10a,11,13,14-pentaaza-6,9-methanonaphtho[1,8-ab]heptalen-2-yl)-4-(trifluoromethyl)aniline], for which the values for the pIC50 in assay [1], in assay [2] and in assay [3] were 7.92, 8.55 and 6.45, respectively.

Turning to `C[C@@H]1Oc2nc(-c3c(C(F)(F)F)cc(F)c(N)c3F)c(F)c3nc(OC[C@@]45CCCN4C[C@H](F)C5)nc(c23)N2C[C@H]3CC[C@H](N3)[C@@H]12` [Compound 90, 2,6-Difluoro-3-((5S,5aS,6S,9R)-1-fluoro-12-(((2R,7aS)-2-fluorotetrahydro-1H-pyrrolizin-7a(5H)-yl)methoxy)-5-methyl-5a,6,7,8,9,10-hexahydro-5H-4-oxa-3,10a,11,13,14-pentaaza-6,9-methanonaphtho[1,8-ab]heptalen-2-yl)-4-(trifluoromethyl)aniline], the pIC50 in assay [1] was 7.72; in assay [2] it was 8.14; in assay [3], 5.94.

As to `Cc1c(F)c(N)c(F)c(-c2nc3c4c(nc(OC[C@@]56CCCN5C[C@H](F)C6)nc4c2F)N2C[C@H]4CC[C@H](N4)[C@H]2[C@H](C)O3)c1C(F)(F)F` [Compound 91, 2,6-Difluoro-3-((5S,5aS,6S,9R)-1-fluoro-12-(((2R,7aS)-2-fluorotetrahydro-1H-pyrrolizin-7a(5H)-yl)methoxy)-5-methyl-5a,6,7,8,9,10-hexahydro-5H-4-oxa-3,10a,11,13,14-pentaaza-6,9-methanonaphtho[1,8-ab]heptalen-2-yl)-5-methyl-4-(trifluoromethyl)aniline], the pIC50 in assay [1] is 8.89; in assay [2], 8.90; in assay [3] it was 6.02.

Turning to `Cc1c(F)c(N)c(F)c(-c2nc3c4c(nc(OC[C@@H]5CC[C@H]6COCCN65)nc4c2F)N2C[C@H]4CC[C@H](N4)[C@H]2[C@H](C)O3)c1C(F)(F)F` [Compound 96, 2,6-Difluoro-3-((5S,5aS,6S,9R)-1-fluoro-12-(((6S,8aS)-hexahydro-1H-pyrrolo[2,1-c][1,4]oxazin-6-yl)methoxy)-5-methyl-5a,6,7,8,9,10-hexahydro-5H-4-oxa-3,10a,11,13,14-pentaaza-6,9-methanonaphtho[1,8-ab]heptalen-2-yl)-5-methyl-4-(trifluoromethyl)aniline], the pIC50 is 8.24 in assay [1], 8.43 in assay [2] and 6.01 in assay [3].

Turning to `Cc1cc(N)c(F)c(-c2nc3c4c(nc(OC[C@@H]5CC[C@H]6COCCN65)nc4c2F)N2C[C@H]4CC[C@H](N4)[C@H]2[C@H](C)O3)c1C(F)(F)F` [Compound 97, 2-Fluoro-3-((5S,5aS,6S,9R)-1-fluoro-12-(((6S,8aS)-hexahydro-1H-pyrrolo[2,1-c][1,4]oxazin-6-yl)methoxy)-5-methyl-5a,6,7,8,9,10-hexahydro-5H-4-oxa-3,10a,11,13,14-pentaaza-6,9-methanonaphtho[1,8-ab]heptalen-2-yl)-5-methyl-4-(trifluoromethyl)aniline], the pIC50 in assay [1] was 8.00; in assay [2], 8.49; in assay [3], 6.24.

Take `C[C@@H]1Oc2nc(-c3cc(N)c(F)c(Cl)c3C(F)(F)F)c(F)c3nc(OC[C@@]45CCCN4C[C@H](F)C5)nc(c23)N2C[C@H]3CC[C@H](N3)[C@@H]12` [Compound 104, 3-Chloro-2-fluoro-5-((5S,5aS,6S,9R)-1-fluoro-12-(((2R,7aS)-2-fluorotetrahydro-1H-pyrrolizin-7a(5H)-yl)methoxy)-5-methyl-5a,6,7,8,9,10-hexahydro-5H-4-oxa-3,10a,11,13,14-pentaaza-6,9-methanonaphtho[1,8-ab]heptalen-2-yl)-4-(trifluoromethyl)aniline]: the pIC50 is 8.85 in assay [1], 9.19 in assay [2] and 6.66 in assay [3].

As to `Cc1nc(N)cc(-c2nc3c4c(nc(OC[C@@H]5CC[C@H]6COCCN65)nc4c2F)N2C[C@H]4CC[C@H](N4)[C@H]2[C@H](C)O3)c1C(F)(F)F` [Compound 112, 4-((5S,5aS,6S,9R)-1-fluoro-12-(((6S,8aS)-hexahydro-1H-pyrrolo[2,1-c][1,4]oxazin-6-yl)methoxy)-5-methyl-5a,6,7,8,9,10-hexahydro-5H-4-oxa-3,10a,11,13,14-pentaaza-6,9-methanonaphtho[1,8-ab]heptalen-2-yl)-6-methyl-5-(trifluoromethyl)pyridin-2-amine], the pIC50 in assay [1] is 7.50; in assay [2], 8.12; in assay [3] it was 5.83.

`Cc1c(F)c(N)cc(-c2nc3c4c(nc(OCC5(CN6CCOCC6)CC5)nc4c2F)N2C[C@H]4CC[C@H](N4)[C@H]2[C@H](C)O3)c1C(F)(F)F` [Compound 118, 2-Fluoro-5-((5S,5aS,6S,9R)-1-fluoro-5-methyl-12-((1-(morpholinomethyl)cyclopropyl)methoxy)-5a,6,7,8,9,10-hexahydro-5H-4-oxa-3,10a,11,13,14-pentaaza-6,9-methanonaphtho[1,8-ab]heptalen-2-yl)-3-methyl-4-(trifluoromethyl)aniline]: the values for the negative-log IC50 (pIC50) in assay [1], in assay [2] and in assay [3] were 9.22, 9.37 and 6.28, respectively.
